The NIST ThermoML archive (doi:10.1016/j.fluid.2015.07.012)
± gives the expanded uncertainty stated by the source.

Assay: xn = mol fraction of the nth substance listed
Conditions: Liquid; for viscosity: Capillary tube (Ostwald / Ubbelohde) method; for mass density: Vibrating tube method

CO [methanol] + O
Conditions | mass density, 10000 kPa [kg/m3] | mass density, 20000 kPa [kg/m3] | mass density, 30000 kPa [kg/m3] | mass density, 40000 kPa [kg/m3] | viscosity, 10000 kPa [mPa·s] | viscosity, 20000 kPa [mPa·s] | viscosity, 30000 kPa [mPa·s] | viscosity, 40000 kPa [mPa·s]
350.7 K, x1 = 0.1 | 945.55 ± 10 | 949.82 ± 10 | 954.11 ± 10 | 958.39 ± 10 | 0.448 ± 0.014 | 0.454 ± 0.014 | 0.458 ± 0.014 | 0.473 ± 0.015
350.7 K, x1 = 0.2 | 917.41 ± 10 | 921.49 ± 10 | 927.03 ± 10 | 931.54 ± 10 | 0.503 ± 0.013 | 0.514 ± 0.014 | 0.526 ± 0.014 | 0.543 ± 0.014
350.7 K, x1 = 0.3 | 889.97 ± 10 | 895.56 ± 10 | 901.14 ± 10 | 906.05 ± 10 | 0.514 ± 0.013 | 0.528 ± 0.013 | 0.542 ± 0.013 | 0.558 ± 0.014
350.7 K, x1 = 0.4 | 865.13 ± 10 | 870.55 ± 10 | 876.99 ± 10 | 882.71 ± 10 | 0.512 ± 0.013 | 0.529 ± 0.013 | 0.544 ± 0.014 | 0.565 ± 0.013
350.7 K, x1 = 0.6 | 819.84 ± 10 | 827.75 ± 10 | 835.46 ± 10 | 842.38 ± 10 | 0.449 ± 0.013 | 0.47 ± 0.013 | 0.494 ± 0.013 | 0.519 ± 0.013
350.7 K, x1 = 0.8 | 780.91 ± 10 | 789.25 ± 10 | 797.6 ± 10 | 805.96 ± 10 | 0.379 ± 0.013 | 0.4 ± 0.013 | 0.416 ± 0.013 | 0.443 ± 0.013
350.7 K, x1 = 1 | – | – | – | – | 0.298 ± 0.012 | 0.313 ± 0.012 | 0.331 ± 0.012 | 0.351 ± 0.012
373.2 K, x1 = 0.1 | 928.71 ± 10 | 932.78 ± 10 | – | – | 0.33 ± 0.013 | 0.337 ± 0.013 | 0.339 ± 0.013 | –
373.2 K, x1 = 0.2 | 900.41 ± 10 | 904.78 ± 10 | – | – | 0.358 ± 0.013 | 0.368 ± 0.013 | 0.372 ± 0.013 | –
373.2 K, x1 = 0.3 | 870.61 ± 10 | 877.31 ± 10 | – | – | 0.364 ± 0.013 | 0.378 ± 0.013 | – | –
373.2 K, x1 = 0.4 | 845.4 ± 10 | 851.97 ± 10 | – | – | 0.36 ± 0.013 | 0.375 ± 0.013 | – | –
373.2 K, x1 = 0.6 | 799.33 ± 10 | 807.98 ± 10 | – | – | 0.324 ± 0.013 | 0.342 ± 0.013 | – | –
373.2 K, x1 = 0.8 | 758.8 ± 10 | 770.24 ± 10 | – | – | 0.276 ± 0.012 | 0.294 ± 0.012 | – | –
373.2 K, x1 = 1 | 725.29 ± 10 | 737.85 ± 10 | – | – | 0.227 ± 0.012 | 0.25 ± 0.012 | – | –
